According to ChEMBL document CHEMBL3763038, “Design and synthesis of a new generation of substituted purine hydroxamate analogs as histone deacetylase inhibitors” (Bioorg Med Chem, 2016):

Legend:
[1] = Antiproliferative activity against human PC3 cells after 48 hrs by MTT assay; type: functional, cell-based; conditions: PC-3, 48 h
[2] = biological target: T1, Histone deacetylase 8 (Homo sapiens, UniProt Q9BY41); assay: Inhibition of C-terminal His-tagged human recombinant HDAC8 expressed in Sf9 cells after 30 mins by microtiter plate reader analysis
T1 sequence (Q9BY41 whole entry): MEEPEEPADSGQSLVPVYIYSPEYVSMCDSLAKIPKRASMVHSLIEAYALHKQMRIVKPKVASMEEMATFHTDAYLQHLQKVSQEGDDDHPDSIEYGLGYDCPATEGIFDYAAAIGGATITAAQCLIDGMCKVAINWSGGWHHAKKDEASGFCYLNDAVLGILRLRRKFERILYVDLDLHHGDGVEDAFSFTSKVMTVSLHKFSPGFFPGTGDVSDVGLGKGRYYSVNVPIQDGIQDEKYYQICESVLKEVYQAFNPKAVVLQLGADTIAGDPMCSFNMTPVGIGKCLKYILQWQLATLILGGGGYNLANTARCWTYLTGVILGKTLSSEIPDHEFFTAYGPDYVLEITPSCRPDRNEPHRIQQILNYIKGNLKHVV

[3] = system: MDA-MB-231; assay: Antiproliferative activity against human MDA-MB-231 cells after 48 hrs by MTT assay; type: functional, cell-based; conditions: MDA-MB-231, 48 h
[4] = Antiproliferative activity against human KG1 cells after 48 hrs by MTT assay; type: functional, cell-based; conditions: KG-1, 48 h
[5] = biological target: Histone deacetylase 2 (Homo sapiens, UniProt Q92769); assay: Inhibition of C-terminal GST-tagged human recombinant HDAC2 expressed in Sf9 cells after 30 mins by microtiter plate reader analysis; type: cell-based
Sequence of Histone deacetylase 2 (Q92769 whole entry): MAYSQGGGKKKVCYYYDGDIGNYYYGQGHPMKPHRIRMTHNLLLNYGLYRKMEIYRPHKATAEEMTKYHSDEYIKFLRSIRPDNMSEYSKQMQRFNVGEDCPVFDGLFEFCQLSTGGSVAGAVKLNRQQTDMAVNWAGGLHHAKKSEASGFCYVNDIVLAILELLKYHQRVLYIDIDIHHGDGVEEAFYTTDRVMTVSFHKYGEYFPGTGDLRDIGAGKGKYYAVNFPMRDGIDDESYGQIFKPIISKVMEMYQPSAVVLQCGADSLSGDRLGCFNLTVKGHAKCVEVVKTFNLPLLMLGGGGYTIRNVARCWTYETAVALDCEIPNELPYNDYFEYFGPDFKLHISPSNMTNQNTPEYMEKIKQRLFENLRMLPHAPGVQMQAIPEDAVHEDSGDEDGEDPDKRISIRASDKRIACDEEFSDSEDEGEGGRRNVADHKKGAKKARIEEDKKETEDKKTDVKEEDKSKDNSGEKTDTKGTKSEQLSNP

[6] = biological target: Histone deacetylase (HDAC1 and HDAC2) (Homo sapiens, UniProt Q13547+Q92769); assay: Inhibition of HDAC1/2 in human HeLa cell nuclear extract using color de Lys as substrate preincubated for 5 mins followed by substrate addition measured after 30 min by microtiter plate reader analysis; type: cell-based

SMILES | IC50 [1] | IC50 [2] | IC50 [3] | IC50 [4] | IC50 [5] | IC50 [6]
O=C(CCCCCNc1nc(Cl)nc2c1ncn2Cc1ccccc1)NO | 2.83 µM | 1.44 µM | 1.12 µM | 0.32 µM | 0.056 µM | 0.026 µM
CC(C)n1cnc2c(NCCCCCCC(=O)NO)nc(N)nc21 | 6.86 µM | 3.13 µM | 3.3 µM | 3.43 µM |  | 
CCCCn1cnc2c(NCCCCCC(=O)NO)nc(N3CCOCC3)nc21 |  |  |  |  |  | 0.13 µM
CC(C)Cn1cnc2c(NCCCCCCC(=O)NO)nc(Cl)nc21 | 1.38 µM | 2.01 µM | 1.65 µM | 0.86 µM | 0.165 µM | 0.027 µM
O=C(CCCCCCNc1nc(N2CCOCC2)nc2[nH]cnc12)NO |  |  |  |  |  | 0.157 µM
